Experimental data published in the supplement of paper PMC13380429.

How the values were obtained:
Settings in all cases: 72 h
HepG2 [1] = assay: drug sensitivity score (DSS) for viability; higher = more toxic; extreme values may be limits of the assay
U2OS [2] = assay: as above
Vero E6 [3] = assay: as above
Calu-3 [4] = assay: as above
Caco-2 [5] = assay: as above
HepG2 [6] = assay: relative viability EC50 (midpoint between 100% and the lowest measured viability); higher = less toxic
U2OS [7] = assay: as above
Vero E6 [8] = assay: as above
Caco-2 [9] = assay: as above
HepG2 [10] = assay: cell viability relative to DMSO; higher = less toxic
U2OS [11] = assay: as above
Vero E6 [12] = assay: as above
Calu-3 [13] = assay: as above
Caco-2 [14] = assay: as above
Calu-3 [15] = assay: relative viability EC50 (midpoint between 100% and the lowest measured viability); higher = less toxic

| SMILES | drug sensitivity score (HepG2 [1]) | drug sensitivity score (U2OS [2]) | drug sensitivity score (Vero E6 [3]) | drug sensitivity score (Calu-3 [4]) | drug sensitivity score (Caco-2 [5]) | relative viability EC50 (HepG2 [6]) | relative viability EC50 (U2OS [7]) | relative viability EC50 (Vero E6 [8]) | relative viability EC50 (Caco-2 [9]) | cell viability (HepG2 [10]; 1 nM) | cell viability (HepG2 [10]; 10 nM) | cell viability (HepG2 [10]; 100 nM) | cell viability (HepG2 [10]; 1000 nM) | cell viability (HepG2 [10]; 10000 nM) | cell viability (U2OS [11]; 1 nM) | cell viability (U2OS [11]; 10 nM) | cell viability (U2OS [11]; 100 nM) | cell viability (U2OS [11]; 1000 nM) | cell viability (U2OS [11]; 10000 nM) | cell viability (Vero E6 [12]; 1 nM) | cell viability (Vero E6 [12]; 10 nM) | cell viability (Vero E6 [12]; 100 nM) | cell viability (Vero E6 [12]; 1000 nM) | cell viability (Vero E6 [12]; 10000 nM) | cell viability (Calu-3 [13]; 1 nM) | cell viability (Calu-3 [13]; 10 nM) | cell viability (Calu-3 [13]; 100 nM) | cell viability (Calu-3 [13]; 1000 nM) | cell viability (Calu-3 [13]; 10000 nM) | cell viability (Caco-2 [14]; 1 nM) | cell viability (Caco-2 [14]; 10 nM) | cell viability (Caco-2 [14]; 100 nM) | cell viability (Caco-2 [14]; 1000 nM) | cell viability (Caco-2 [14]; 10000 nM) | relative viability EC50 (Calu-3 [15]) |
| --- | --- | --- | --- | --- | --- | --- | --- | --- | --- | --- | --- | --- | --- | --- | --- | --- | --- | --- | --- | --- | --- | --- | --- | --- | --- | --- | --- | --- | --- | --- | --- | --- | --- | --- | --- |
| CC1(C)CCC(C)(C)c2cc(C#Cc3ccc(C(=O)O)cc3)ccc21 [EC-23] | 0 | 0 | 0 | 5.2 | 1.7 | > 10 µM | > 10 µM | > 10 µM | > 10 µM | 96.5% | 108% | 104% | 108% | 106% | 105% | 100% | 98.4% | 95.7% | 97.4% | 102% | 99.6% | 100% | 97.4% | 94.2% | 106% | 88.7% | 83.9% | 63.9% | 85.7% | 104% | 105% | 89.1% | 88.8% | 80.6% | – |
| CCOc1cc2ncc(C#N)c(Nc3ccc(OCc4cccc(F)c4)c(Cl)c3)c2cc1NC(=O)/C=C/CN(C)C [HKI-357] | 7 | – | 9.8 | 10.7 | 8.6 | 2.41 µM | – | 1.37 µM | 1.63 µM | 97% | 93.6% | 102% | 90.9% | 0.3% | – | – | – | – | – | 99.7% | 106% | 92.6% | 65.3% | 0.2% | 101% | 81% | 51.5% | 94.1% | 32.9% | 94.4% | 95.3% | 88.1% | 77.9% | 6% | 0.373 µM |
| CO[C@@H]1COCC[C@@H]1N[C@@H]1CC[C@@](C(=O)N2CCc3ncc(C(F)(F)F)cc3C2)(C(C)C)C1 [MK-0812] | 0 | 0 | 0 | – | 0 | > 10 µM | > 10 µM | > 10 µM | > 10 µM | 96.5% | 82.9% | 90.3% | 94.7% | 98.4% | 98.8% | 106% | 101% | 106% | 103% | 102% | 100% | 111% | 106% | 97.2% | – | – | – | – | – | 110% | 95.7% | 99% | 113% | 97.5% | – |
| O=S(=O)(N[C@H]1CC[C@@](c2cc(F)ccc2F)(S(=O)(=O)c2ccc(Cl)cc2)CC1)C(F)(F)F [MRK-560] | 2.1 | 0 | – | 0 | 0 | > 10 µM | > 10 µM | – | > 10 µM | 98.5% | 91.2% | 106% | 81.5% | 86.4% | 99.9% | 102% | 100% | 101% | 95.9% | – | – | – | – | – | 96.2% | 91.2% | 104% | 97.7% | 102% | 88.8% | 99.1% | 94.5% | 94.7% | 95.6% | > 10 µM |
| O=C(Nc1nc2ccc(NC(=O)C34CC5CC(CC(C5)C3)C4)cc2s1)c1ccccc1 [NVP-231] | 6.4 | 4 | 4.4 | 3.8 | 5.2 | 1.24 µM | 1.93 µM | 2.34 µM | 1.58 µM | 83.9% | 98.2% | 91.6% | 74.1% | 35.4% | 100% | 93.8% | 99.3% | 91.9% | 49.6% | 101% | 96.1% | 90.3% | 93.9% | 38.4% | 100% | 96.1% | 91.8% | 93.1% | 50.3% | 95.6% | 89.2% | 106% | 86.3% | 43.5% | – |
| O=C(NC[C@H]1CN(c2ccc(N3CCOCC3=O)cc2)C(=O)O1)c1ccc(Cl)s1 [Rivaroxaban (Xarelto)] | 0 | 0 | – | 0 | 0 | > 10 µM | > 10 µM | – | > 10 µM | 102% | 102% | 97.1% | 110% | 90.9% | 103% | 99.1% | 102% | 96% | 102% | – | – | – | – | – | 96.4% | 89.7% | 105% | 102% | 96.4% | 92.6% | 95.4% | 101% | 86.9% | 91% | > 10 µM |
| NS(=O)(=O)c1ccc(-n2nc(C(F)(F)F)cc2-c2ccc(Cl)cc2)cc1 [SC-236] | 0 | 0 | 0 | – | 0.7 | > 10 µM | > 10 µM | > 10 µM | > 10 µM | 111% | 99.5% | 101% | 101% | 103% | 99.1% | 96% | 98.1% | 102% | 103% | 94.7% | 93.3% | 91.6% | 91.6% | 100% | – | – | – | – | – | 102% | 92% | 86.3% | 96.6% | 82.8% | – |
| NC(=O)Nc1sc(-c2ccc(F)cc2)cc1C(N)=O [TPCA-1] | 4.7 | 3.8 | 2.7 | 1.4 | 7.2 | 1.3 µM | 2.35 µM | – | 1.44 µM | 99.5% | 95.8% | 94.2% | 80.6% | 49.8% | 100% | 104% | 95.9% | 94.6% | 45.3% | 104% | 98.3% | 101% | 98.2% | 52% | 98.1% | 104% | 97.7% | 96.4% | 75.9% | 95.6% | 99.4% | 94.2% | 76.6% | 25.8% | > 10 µM |
